PubChem BioAssay AID1963982 (Molecular Pharmacology Branch, DTP, NCI, 2024)
Values joined by “and” are separate entries in the source; they are usually repeats but may differ in a detail not shown here. Equal entries are not always repeated.

System: 313798-341-R-J2-PDC spheroids, viability
Assay: Anticancer human tumor 313798-341-R-J2-PDC patient-derived cervical squamous cell carcinoma cell line growth inhibition [PI3K]
Conditions: spheroids with HUVEC and MSC; for viability, T/C: stronger effect = lower value
How it was run: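 Stroma-containing spheroids: tumor line, pooled-donor HUVEC, hMSC. Treatments: targeted agents with PI3K inhibitors. Dosing: clinically relevant, half-log spacing, 10 microM ceiling without known Cmax. Read-out: cell viability.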

[1] = curve of first compound, second compound 0.00316 µM
[2] = curve of first compound, second compound 0.01 µM
[3] = curve of first compound, second compound 0.0316 µM
[4] = curve of first compound, second compound 0.1 µM
[5] = curve of first compound, second compound 0.316 µM
[6] = curve of first compound, second compound 1 µM
[7] = second compound 0.00316 µM, first compound 0.0316 µM
[8] = second compound 0.00316 µM, first compound 0.1 µM
[9] = second compound 0.00316 µM, first compound 0.316 µM
[10] = second compound 0.00316 µM, first compound 1 µM
[11] = second compound 0.00316 µM, first compound 3.16 µM
[12] = second compound 0.00316 µM, first compound 10 µM
[13] = second compound 0.01 µM, first compound 0.0316 µM
[14] = second compound 0.01 µM, first compound 0.1 µM
[15] = second compound 0.01 µM, first compound 0.316 µM
[16] = second compound 0.01 µM, first compound 1 µM
[17] = second compound 0.01 µM, first compound 3.16 µM
[18] = second compound 0.01 µM, first compound 10 µM
[19] = second compound 0.0316 µM, first compound 0.0316 µM
[20] = second compound 0.0316 µM, first compound 0.1 µM
[21] = second compound 0.0316 µM, first compound 0.316 µM
[22] = second compound 0.0316 µM, first compound 1 µM
[23] = second compound 0.0316 µM, first compound 3.16 µM
[24] = second compound 0.0316 µM, first compound 10 µM
[25] = second compound 0.1 µM, first compound 0.0316 µM
[26] = second compound 0.1 µM, first compound 0.1 µM
[27] = second compound 0.1 µM, first compound 0.316 µM
[28] = second compound 0.1 µM, first compound 1 µM
[29] = second compound 0.1 µM, first compound 3.16 µM
[30] = second compound 0.1 µM, first compound 10 µM
[31] = second compound 0.316 µM, first compound 0.0316 µM
[32] = second compound 0.316 µM, first compound 0.1 µM
[33] = second compound 0.316 µM, first compound 0.316 µM
[34] = second compound 0.316 µM, first compound 1 µM
[35] = second compound 0.316 µM, first compound 3.16 µM
[36] = second compound 0.316 µM, first compound 10 µM
[37] = second compound 1 µM, first compound 0.0316 µM
[38] = second compound 1 µM, first compound 0.1 µM
[39] = second compound 1 µM, first compound 0.316 µM
[40] = second compound 1 µM, first compound 1 µM
[41] = second compound 1 µM, first compound 3.16 µM
[42] = second compound 1 µM, first compound 10 µM
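Also: spheroids exposed to compounds for seven days.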
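For viability, T/C in this document: 100% = DMSO vehicle control viability.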

With `C[C@@H](NC(=O)c1ncnc(N)c1Cl)c1ncc(C(=O)Nc2cc(C(F)(F)F)c(Cl)cn2)s1` the viability, T/C (compound 0.0316 µM) was 94.6% [middle of 4 runs], the viability, T/C (compound 0.1 µM) was 102% [middle of 4 runs] and the viability, T/C (compound 0.316 µM) was 99.1% [middle of 4 runs]. The viability, T/C (compound 1 µM) was 97.8% [middle of 4 runs], the viability, T/C (compound 3.16 µM) was 120% [middle of 4 runs] and the IC50 (curve of compound) was > 10 µM and 5.95 µM.

`CCCS(=O)(=O)Nc1ccc(F)c(C(=O)c2c[nH]c3ncc(-c4ccc(Cl)cc4)cc23)c1F` + CC(Nc1ccc2c(c1)OCCn1cc(N3C(=O)OCC3C(F)F)nc1-2)C(N)=O was tested, and the IC50 [1] was 6 µM, the IC50 [2] was 6 µM and the IC50 [3] was 5.77 µM. For the same compound, the IC50 [4] was 4.97 µM, the IC50 [5] was 3.56 µM and the IC50 [6] was 1.67 µM. For the same compound, the viability, T/C [7] was 90.6%, the viability, T/C [8] was 98.7% and the viability, T/C [9] was 88.4%. The viability, T/C [10] was 114%, the viability, T/C [11] was 97.9% and the viability, T/C [12] was 11.9%. For the same compound, the viability, T/C [13] was 99.1%, the viability, T/C [14] was 95.8% and the viability, T/C [15] was 98.7%. For the same compound, the viability, T/C [16] was 106%, the viability, T/C [17] was 104% and the viability, T/C [18] was 9.37%. For the same compound, the viability, T/C [19] was 107%, the viability, T/C [20] was 97.8% and the viability, T/C [21] was 97.7%. For the same compound, the viability, T/C [22] was 97.7%, the viability, T/C [23] was 92.7% and the viability, T/C [24] was 10.9%. For the same compound, the viability, T/C [25] was 104%, the viability, T/C [26] was 92.6% and the viability, T/C [27] was 84.9%. It also gave a viability, T/C [28] of 92.6%, a viability, T/C [29] of 76% and a viability, T/C [30] of 9.75%. The viability, T/C [31] was 74.6%, the viability, T/C [32] was 82.1% and the viability, T/C [33] was 79.7%. It also gave a viability, T/C [34] of 73.6%, a viability, T/C [35] of 54.9% and a viability, T/C [36] of 8.5%. The viability, T/C [37] was 50.5%, the viability, T/C [38] was 59.1% and the viability, T/C [39] was 59.5%. It also gave a viability, T/C [40] of 58%, a viability, T/C [41] of 41.6% and a viability, T/C [42] of 8.44%.

In the case of `C=CC(=O)N1CCN(c2nc(=O)n(-c3c(C)ccnc3C(C)C)c3nc(-c4c(O)cccc4F)c(F)cc23)C(C)C1` (configuration not stated) + COc1c(OCCCN2CCOCC2)ccc2c3n(c(=NC(=O)c4cnc(N)nc4)nc12)CCN3, the IC50 [1] is reported as > 10 µM, the IC50 [2] is reported as > 10 µM and the IC50 [3] is reported as > 10 µM. For the same compound, the IC50 [4] was < 0.0316 µM, the IC50 [5] was < 0.0316 µM and the IC50 [6] was < 0.0316 µM. The viability, T/C [7] was 98.3%, the viability, T/C [8] was 103% and the viability, T/C [9] was 106%. For the same compound, the viability, T/C [10] was 96.1%, the viability, T/C [11] was 101% and the viability, T/C [12] was 106%. The viability, T/C [13] was 92%, the viability, T/C [14] was 99.4% and the viability, T/C [15] was 106%. It also gave a viability, T/C [16] of 112%, a viability, T/C [17] of 112% and a viability, T/C [18] of 96.5%. It also gave a viability, T/C [19] of 70.6%, a viability, T/C [20] of 80.3% and a viability, T/C [21] of 91.4%. The viability, T/C [22] was 90.4%, the viability, T/C [23] was 83.6% and the viability, T/C [24] was 82.9%. For the same compound, the viability, T/C [25] was 44.8%, the viability, T/C [26] was 48.9% and the viability, T/C [27] was 52.1%. The viability, T/C [28] was 48.7%, the viability, T/C [29] was 50.1% and the viability, T/C [30] was 42.9%. For the same compound, the viability, T/C [31] was 16.8%, the viability, T/C [32] was 17.9% and the viability, T/C [33] was 15.4%. It also gave a viability, T/C [34] of 18.2%, a viability, T/C [35] of 19.1% and a viability, T/C [36] of 13.5%. It also gave a viability, T/C [37] of 12%, a viability, T/C [38] of 12.6% and a viability, T/C [39] of 12.8%. The viability, T/C [40] was 13.7%, the viability, T/C [41] was 14.6% and the viability, T/C [42] was 10.2%.

With `Cn1ncnc1[C@H]1c2n[nH]c(=O)c3cc(F)cc(c23)N[C@@H]1c1ccc(F)cc1` + CC(Nc1ncnc2nc[nH]c12)c1cc2cccc(Cl)c2c(=O)n1-c1ccccc1 the IC50 [3] was > 0.1 µM, the IC50 [4] was > 0.1 µM and the IC50 [5] was > 0.1 µM. The IC50 [6] was > 0.1 µM, the IC50 (curve of first compound, second compound 3.16 µM) was > 0.1 µM and the IC50 (curve of first compound, second compound 10 µM) was > 0.1 µM. It also gave a viability, T/C (second compound 0.0316 µM, first compound 0.000316 µM) of 110%, a viability, T/C (second compound 0.0316 µM, first compound 0.001 µM) of 94.2% and a viability, T/C (second compound 0.0316 µM, first compound 0.00316 µM) of 89.2%. For the same compound, the viability, T/C (second compound 0.0316 µM, first compound 0.01 µM) was 109%, the viability, T/C [19] was 89.5% and the viability, T/C [20] was 77.1%. It also gave a viability, T/C (second compound 0.1 µM, first compound 0.000316 µM) of 94.7%, a viability, T/C (second compound 0.1 µM, first compound 0.001 µM) of 101% and a viability, T/C (second compound 0.1 µM, first compound 0.00316 µM) of 91.8%. It also gave a viability, T/C (second compound 0.1 µM, first compound 0.01 µM) of 96.7%, a viability, T/C [25] of 97.4% and a viability, T/C [26] of 84%. For the same compound, the viability, T/C (second compound 0.316 µM, first compound 0.000316 µM) was 92.6%, the viability, T/C (second compound 0.316 µM, first compound 0.001 µM) was 103% and the viability, T/C (second compound 0.316 µM, first compound 0.00316 µM) was 102%. It also gave a viability, T/C (second compound 0.316 µM, first compound 0.01 µM) of 105%, a viability, T/C [31] of 85.8% and a viability, T/C [32] of 85.2%. It also gave a viability, T/C (second compound 1 µM, first compound 0.000316 µM) of 102%, a viability, T/C (second compound 1 µM, first compound 0.001 µM) of 102% and a viability, T/C (second compound 1 µM, first compound 0.00316 µM) of 103%. It also gave a viability, T/C (second compound 1 µM, first compound 0.01 µM) of 95.5%, a viability, T/C [37] of 90.9% and a viability, T/C [38] of 86.2%. The viability, T/C (second compound 3.16 µM, first compound 0.000316 µM) was 92.9%, the viability, T/C (second compound 3.16 µM, first compound 0.001 µM) was 91.1% and the viability, T/C (second compound 3.16 µM, first compound 0.00316 µM) was 87.7%. For the same compound, the viability, T/C (second compound 3.16 µM, first compound 0.01 µM) was 95.5%, the viability, T/C (second compound 3.16 µM, first compound 0.0316 µM) was 84.1% and the viability, T/C (second compound 3.16 µM, first compound 0.1 µM) was 79.9%. For the same compound, the viability, T/C (second compound 10 µM, first compound 0.000316 µM) was 88.1%, the viability, T/C (second compound 10 µM, first compound 0.001 µM) was 80.8% and the viability, T/C (second compound 10 µM, first compound 0.00316 µM) was 73.8%. It also gave a viability, T/C (second compound 10 µM, first compound 0.01 µM) of 78.6%, a viability, T/C (second compound 10 µM, first compound 0.0316 µM) of 74.3% and a viability, T/C (second compound 10 µM, first compound 0.1 µM) of 61.5%.
